Read-outs that look alike come from different tables or passages of the source.
What was measured:
[1] = tested on: MRSA COL (MB5393); assay: TarO Inhibitor/β-Lactam Synergy Assay (growth, OD600); format: cell-based; conditions: Staphylococcus aureus, read-out: MITC95 TarO inhibitor alone, Bacteria: SA_MB5393
[2] = tested on: MRSA COL (MB5393); assay: as above; format: cell-based, Staphylococcus aureus; conditions: for MITC95 TarO inhibitor + 4 μg/mL IPM; Bacteria: SA_MB5393: in combination with 4 μg/mL imipenem (IPM); for MITC95 TarO inhibitor + 8 μg/mL DCX; Bacteria: SA_MB5393: in combination with 8 μg/mL dicloxacillin (DCX)
Protocol: The TarO inhibitor/β-lactam synergy assay was performed to measure the re-sensitization of methicillin-resistant Staphylococci bacteria (MB5393: MRSA COL) to β-lactam antibiotics by TarO inhibitors. MRSA COL is a hospital-acquired penicillinase-negative clinically isolated strain commonly used in Staphylococcus aureus studies and is fully resistant to the antimicrobial bioactivity of β-lactam antibiotics, including but not limited to imipenem and dicloxacillin. […] MRSA COL is fully refractory to β-lactam antibiotic effect at the current clinical breakpoint concentrations and as such MRSA COL is fully viable at these concentrations.
The β-lactam antibiotic concentration was fixed at the clinical breakpoint (imipenem 4 μg/ml or dicloxacillin 8 μg/ml) and the TarO inhibitors were titrated by 2 fold starting from the highest concentration of 200 μM with final DMSO concentration of 2% in the assay. 5×10^5 colony forming unit of MRSA COL in cation-adjusted Mueller Hinton broth (CAMHB) was then mixed and the assay plate was incubated for 20 hours at 37° C. without shaking. After 20 hours, the optical density at 600 nm (OD600) was read for all wells to determine relative growth of MRSA COL.

[3] = TarO inhibitor alone, >200 μM = 95% growth inhibition not achieved, 20 hours at 37° C.

SMILES	IC95 [1, 3]	MITC95 TarO inhibitor + 4 μg/mL IPM; Bacteria: SA_MB5393 [2]	MITC95 TarO inhibitor + 8 μg/mL DCX; Bacteria: SA_MB5393 [2]	IC95 ([1]; 20 h)	MITC95 concentration of β-lactam antibiotic alone ([2]; β-lactam alone, MRSA COL)
Cc1ccccc1CNC(=O)N1C(=O)O[C@H](c2cc(F)cc(C(F)(F)F)c2)[C@@H]1C [Example 16, (4S,5R)-5-[3-fluoro-5-(trifluoromethyl)phenyl]-4-methyl-N-(2-methylbenzyl)-2-oxo-1,3-oxazolidine-3-carboxamide]	> 200 µM	0.38 µM	3.52 µM		
C[C@H]1[C@@H](c2cc(Br)cc(C(F)(F)F)c2)OC(=O)N1C(=O)CCc1cncc2ccccc12 [Example 88, (4S,5R)-5-[3-bromo-5-(trifluoromethyl)phenyl]-3-(3-isoquinolin-4-ylpropanoyl)-4-methyl-1,3-oxazolidin-2-one]	> 200 µM	1.30 µM	6.25 µM		
Cc1ccc2c(n1)N(CCC(=O)N1C(=O)O[C@H](c3cc(F)cc(C(F)(F)F)c3)[C@@H]1C)CCO2 [Example 92, (4S,5R)-5-(3-fluoro-5-(trifluoromethyl)phenyl)-4-methyl-3-(3-(6-methyl-2,3-dihydro-4H-pyrido[3,2-b][1,4]oxazin-4-yl)propanoyl)oxazolidin-2-one]	> 200 µM	0.51 µM	7.50 µM		
C[C@H]1[C@@H](c2cc(F)cc(C(F)(F)F)c2)OC(=O)N1C(=O)NCc1cccc2cc[nH]c12 [Example 12, (4S,5R)-5-[3-fluoro-5-(trifluoromethyl)phenyl]-N-(1H-indol-7-ylmethyl)-4-methyl-2-oxo-1,3-oxazolidine-3-carboxamide]	> 200 µM	0.25 µM	1.56 µM		
O=C(CCc1cncc2ccccc12)N1CC(c2cc(C(F)(F)F)cc(C(F)(F)F)c2)OC1=O (stereo not drawn) [Example 76, 5-[3,5-bis(trifluoromethyl)phenyl]-3-(3-isoquinolin-4-ylpropanoyl)-1,3-oxazolidin-2-one]	> 200 µM	0.39 µM			
COc1cc(C(F)(F)F)cc([C@H]2OC(=O)N(C(=O)NCc3cncc4ccccc34)[C@H]2CO)n1 [Example 63, (4S,5S)-4-(hydroxymethyl)-N-(isoquinolin-4-ylmethyl)-5-(6-methoxy-4-(trifluoromethyl)-pyridin-2-yl)-2-oxooxazolidine-3-carboxamide]		0.37 µM	1.13 µM	> 200 µM	
C[C@H]1[C@@H](c2cc(C(F)(F)F)cc(C(F)(F)F)c2)OC(=O)N1C(=O)CCc1cccc2sccc12 [Example 68, (4S,5R)-3-[3-(1-benzothiophen-4-yl)propanoyl]-5-[3,5-bis(trifluoromethyl)phenyl]-4-methyl-1,3-oxazolidin-2-one]	> 200 µM	0.01 µM	0.20 µM		
C[C@H]1[C@@H](c2cc(F)cc(C(F)(F)F)c2)OC(=O)N1C(=O)NCc1cccc2nccnc12 [Example 22, (4S,5R)-5-[3-fluoro-5-(trifluoromethyl)phenyl]-4-methyl-2-oxo-N-(quinoxalin-5-ylmethyl)-1,3-oxazolidine-3-carboxamide]	> 200 µM	0.49 µM	6.25 µM		
Cc1cccc(OCC(=O)N2C(=O)O[C@H](c3cccc(C(F)(F)F)c3)[C@@H]2C)c1C [Example 90, (4S,5R)-3-(2-(2,3-dimethylphenoxy)acetyl)-4-methyl-5-(3-(trifluoromethyl)-phenyl)oxazolidin-2-one]	> 200 µM	0.39 µM	12.50 µM		
C[C@H]1[C@@H](c2cc(C(F)(F)F)cc(C(F)(F)F)c2)OC(=O)N1C(=O)NCc1cccc2nccnc12 [Example 10, (4S,5R)-5-[3,5-bis (trifluoromethyl)phenyl]-4-methyl-2-oxo-N-(quinoxalin-5-ylmethyl)-1,3-oxazolidine-3-carboxamide]	> 200 µM	0.06 µM	0.37 µM		
C[C@H]1[C@@H](c2cccc(OC(F)(F)F)c2)OC(=O)N1C(=O)CCc1cncc2ccccc12 [Example 72, (4S,5R)-3-(3-isoquinolin-4-ylpropanoyl)-4-methyl-5-[3-(trifluoromethoxy)phenyl]-1,3-oxazolidin-2-one]	> 200 µM	0.21 µM	1.56 µM		
C[C@H]1[C@@H](c2cc(C(F)(F)F)cc(C(F)(F)F)c2)OC(=O)N1C(=O)NCc1cncc2cccnc12 [Example 4, (4S,5R)-5-[3,5-bis(trifluoromethyl)phenyl]-4-methyl-N-(1,6-naphthyridin-8-ylmethyl)-2-oxo-1,3-oxazolidine-3-carboxamide]	> 200 µM	0.13 µM	0.39 µM		
C[C@H]1[C@@H](c2cc(N(C)C)cc(C(F)(F)F)c2)OC(=O)N1C(=O)NCc1cncc2ccccc12 [Example 98, (4S,5R)-5-[3-(dimethylamino)-5-(trifluoromethyl)phenyl]-N-(isoquinolin-4-ylmethyl)-4-methyl-2-oxo-1,3-oxazolidine-3-carboxamide]	> 200 µM	0.01 µM	0.41 µM		
O=C(CCc1cncc2ccccc12)N1C[C@H](c2cc(C(F)(F)F)cc(C(F)(F)F)c2)OC1=O [Example 85, (5S)-5-[3,5-bis(trifluoromethyl)phenyl]-3-(3-isoquinolin-4-ylpropanoyl)-1,3-oxazolidin-2-one]	> 200 µM	0.55 µM	25.00 µM		
C[C@H]1[C@@H](c2cccc(C(F)F)c2)OC(=O)N1C(=O)NCc1cncc2ccccc12 [Example 33, (4S,5R)-5-[3-(difluoromethyl)phenyl]-N-(isoquinolin-4-ylmethyl)-4-methyl-2-oxo-1,3-oxazolidine-3-carboxamide]	> 200 µM	1.37 µM	9.38 µM		
C[C@H]1[C@@H](c2cc(F)cc(C(F)(F)F)c2)OC(=O)N1C(=O)NCc1ccccc1OC(F)F [Example 5, (4S,5R)-N-[2-(difluoromethoxy)benzyl]-5-[3-fluoro-5-(trifluoromethyl)phenyl]-4-methyl-2-oxo-1,3-oxazolidine-3-carboxamide]	> 200 µM	0.09 µM	0.71 µM		
COc1ccccc1CNC(=O)N1C(=O)O[C@H](c2cccc(C(F)(F)F)c2)[C@@H]1C [Example 24, (4S,5R)-N-(2-methoxybenzyl)-4-methyl-2-oxo-5-[3-(trifluoromethyl)phenyl]-1,3-oxazolidine-3-carboxamide]	> 200 µM	0.20 µM	7.29 µM		
C[C@H]1[C@@H](c2cc(F)cc(Br)c2)OC(=O)N1C(=O)NCc1cncc2ccccc12 [Example 25, (4S,5R)-5-(3-bromo-5-fluorophenyl)-N-(isoquinolin-4-ylmethyl)-4-methyl-2-oxo-1,3-oxazolidine-3-carboxamide]	> 200 µM	0.22 µM	1.38 µM		
C[C@H]1[C@@H](c2cc(C(F)(F)F)cc(C(F)(F)F)c2)OC(=O)N1C(=O)COc1cccc2ccccc12 [Example 91, (4S,5R)-5-[3,5-bis(trifluoro-methyl)phenyl]-4-methyl-3-[(naphthalen-1-yloxy)acetyl]-1,3-oxazolidin-2-one]	> 200 µM	0.76 µM	4.69 µM		
O=C(CCc1cncc2ccccc12)N1CC(c2cccc(F)c2F)OC1=O (stereo not drawn) [Example 86, 5-(2,3-difluorophenyl)-3-(3-isoquinolin-4-ylpropanoyl)-1,3-oxazolidin-2-one]	> 200 µM	1.41 µM	8.33 µM		
C[C@H]1[C@@H](c2cc(C(F)(F)F)cc(C(F)(F)F)c2)OC(=O)N1C(=O)NCc1cnc2c(c1)CCC2 [Example 42, (4S,5R)-5-[3,5-bis(trifluoromethyl)phenyl]-N-(6,7-dihydro-5H-cyclopenta[b]pyridin-3-ylmethyl)-4-methyl-2-oxo-1,3-oxazolidine-3-carboxamide]	> 200 µM	0.78 µM	12.50 µM		
Cc1onc(-c2c(Cl)cccc2Cl)c1C(=O)N[C@@H]1C(=O)N2[C@@H]1SC(C)(C)[C@@H]2C(=O)O [dicloxacillin, reference compound]					128 µg/mL

Source: patent publication US11141410B2 (MERCK SHARP & DOHME CORP., priority 2015, dated 2021)
